Consider 23 molecules from US20260297080A1, “BICYCLIC COMPOUNDS AS CDK INHIBITORS” (BeOne Medicines I GmbH, priority 2022, published 2026).

The target in one assay is CDK2/Cyclin E1 (Homo sapiens, UniProt P24941). Description: CDK2/Cyclin E1 Biochemical Assay (TR-FRET), 0.060 mM ATP. The following applies: 0.15 μM Rb (Ser780)-biotin substrate, pH7.0, 60 min preincubation, 120 min reaction, room temperature. The method, boiled down: (§1)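 TR-FRET readout: 665/620 nm ratio from Eu-cryptate anti-pRb(Ser780) antibody plus streptavidin-XL665, converted to % inhibition and fitted (4-parameter logistic) for IC50. Reactions used 0.15 μM biotinylated Rb (Ser780) substrate, compound 0–10 μM, 60 min enzyme–compound preincubation, then 120 min reaction at room temperature.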

The target in a further assay is CDK1/Cyclin B1 (Homo sapiens, UniProt P06493). The assay can be described thus: CDK1/Cyclin B1 Biochemical Assay (TR-FRET), 0.015 mM ATP. The following applies: 0.15 μM Rb (Ser780)-biotin substrate, pH7.0, 60 min preincubation, 120 min reaction, room temperature. The method, boiled down:
as §1

Structures are written as SMILES.

CDK1/Cyclin B1, sequence (P06493 whole entry): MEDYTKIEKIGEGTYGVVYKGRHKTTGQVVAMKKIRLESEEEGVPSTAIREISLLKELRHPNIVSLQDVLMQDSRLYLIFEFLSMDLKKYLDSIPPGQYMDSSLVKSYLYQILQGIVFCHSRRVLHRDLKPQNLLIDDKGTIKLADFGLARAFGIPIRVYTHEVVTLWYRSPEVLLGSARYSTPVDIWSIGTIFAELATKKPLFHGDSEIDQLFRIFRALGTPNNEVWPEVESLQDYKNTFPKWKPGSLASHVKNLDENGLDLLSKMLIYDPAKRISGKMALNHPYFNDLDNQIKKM
CDK1/Cyclin B1, sequence (P14635 whole entry partner): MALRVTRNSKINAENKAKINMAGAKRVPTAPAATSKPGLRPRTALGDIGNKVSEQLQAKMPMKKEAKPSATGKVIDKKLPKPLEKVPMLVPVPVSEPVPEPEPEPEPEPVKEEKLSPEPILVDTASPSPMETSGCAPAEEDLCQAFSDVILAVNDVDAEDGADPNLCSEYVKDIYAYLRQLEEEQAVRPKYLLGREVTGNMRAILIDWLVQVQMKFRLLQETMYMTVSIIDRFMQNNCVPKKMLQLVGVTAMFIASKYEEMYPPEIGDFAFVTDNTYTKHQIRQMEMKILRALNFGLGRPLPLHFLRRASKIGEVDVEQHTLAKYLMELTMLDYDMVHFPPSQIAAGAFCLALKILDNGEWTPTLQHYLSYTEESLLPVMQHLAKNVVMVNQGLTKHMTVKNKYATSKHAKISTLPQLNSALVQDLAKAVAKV

As to `COCC1(NC(=O)O[C@H]2CC[C@@H](c3cc(Nc4ccc5c(c4F)CNS5(=O)=O)n[nH]3)C2)CC1` (single isomer, unassigned) [Example 158b, cis-3-(3-((4-fluoro-1,1-dioxido-2,3-dihydrobenzo[d]isothiazol-5-yl)amino)-1H-pyrazol-5-yl)cyclopentyl(1-(methoxymethyl)cyclopropyl)carbamate], the figures for the IC50 against CDK2/Cyclin E1 and against CDK1/Cyclin B1 were 3.3 nM and 248 nM, respectively.

On to `CC1(NC(=O)O[C@H]2CC[C@@H](c3cc(Nc4ccc5c(c4F)CNS5(=O)=O)n[nH]3)C2)CCOC1` (single isomer, unassigned) [Example 162a, cis-3-(3-((4-fluoro-1,1-dioxido-2,3-dihydrobenzo[d]isothiazol-5-yl)amino)-1H-pyrazol-5-yl)cyclopentyl(3-methyltetrahydrofuran-3-yl)carbamate], for which the 50% inhibitory concentration (IC50) on CDK2/Cyclin E1 came out at 3.4 nM; at CDK1/Cyclin B1, 456 nM.

For `CC1(NC(=O)O[C@H]2CC[C@@H](c3cc(Nc4ccc5c(c4F)CNS5(=O)=O)n[nH]3)C2)CCOC1` (single isomer, unassigned) [Example 162b, cis-3-(3-((4-fluoro-1,1-dioxido-2,3-dihydrobenzo[d]isothiazol-5-yl)amino)-1H-pyrazol-5-yl)cyclopentyl(3-methyltetrahydrofuran-3-yl)carbamate], the results for the half-inhibitory concentration (IC50) at CDK2/Cyclin E1 and against CDK1/Cyclin B1 were 1.1 nM and 186 nM, respectively.

`CC1(NC(=O)O[C@H]2CC[C@@H](c3cc(Nc4ccc5c(c4F)CNS5(=O)=O)n[nH]3)C2)CCOC1` (single isomer, unassigned) [Example 162c, cis-3-(3-((4-fluoro-1,1-dioxido-2,3-dihydrobenzo[d]isothiazol-5-yl)amino)-1H-pyrazol-5-yl)cyclopentyl(3-methyltetrahydrofuran-3-yl)carbamate]: the IC50 stood at 3.1 nM against CDK2/Cyclin E1 and 408 nM at CDK1/Cyclin B1.

Turning to `CC1(NC(=O)O[C@H]2CC[C@@H](c3cc(Nc4ccc5c(c4F)CNS5(=O)=O)n[nH]3)C2)CCOC1` (single isomer, unassigned) [Example 162d, cis-3-(3-((4-fluoro-1,1-dioxido-2,3-dihydrobenzo[d]isothiazol-5-yl)amino)-1H-pyrazol-5-yl)cyclopentyl(3-methyltetrahydrofuran-3-yl)carbamate], the figures for the IC50 at CDK2/Cyclin E1 and against CDK1/Cyclin B1 were 3.7 nM and 158 nM, respectively.

As for `CC1(NC(=O)O[C@H]2CC[C@@H](c3cc(Nc4ccc5c(c4F)CNS5(=O)=O)n[nH]3)C2)COC1` (single isomer, unassigned) [Example 164a, cis-3-(3-((4-fluoro-1,1-dioxido-2,3-dihydrobenzo[d]isothiazol-5-yl)amino)-1H-pyrazol-5-yl)cyclopentyl(3-methyloxetan-3-yl)carbamate], the values for the IC50 at CDK2/Cyclin E1 and at CDK1/Cyclin B1 were 4.3 nM and 364 nM, respectively.

Turning to `CC1(NC(=O)O[C@H]2CC[C@@H](c3cc(Nc4ccc5c(c4F)CNS5(=O)=O)n[nH]3)C2)COC1` (single isomer, unassigned) [Example 164b, cis-3-(3-((4-fluoro-1,1-dioxido-2,3-dihydrobenzo[d]isothiazol-5-yl)amino)-1H-pyrazol-5-yl)cyclopentyl(3-methyloxetan-3-yl)carbamate], the results for the IC50 at CDK2/Cyclin E1 and against CDK1/Cyclin B1 were 8.4 nM and 189 nM, respectively.

`CN1Cc2c(ccc(Nc3cc([C@@H]4CC[C@H](OC(=O)NC5CCC(O)CC5)C4)[nH]n3)c2F)S1(=O)=O` (single isomer, unassigned) [Example 166, cis-3-(3-((4-fluoro-2-methyl-1,1-dioxido-2,3-dihydrobenzo[d]isothiazol-5-yl)amino)-1H-pyrazol-5-yl)cyclopentyl(4-hydroxycyclohexyl)carbamate]: the results for the IC50 at CDK2/Cyclin E1 and at CDK1/Cyclin B1 were 2.9 nM and 74 nM, respectively.

As for `CN1Cc2c(ccc(Nc3cc([C@@H]4CC[C@H](OC(=O)NC5CCC(O)CC5)C4)[nH]n3)c2F)S1(=O)=O` (single isomer, unassigned) [Example 167, cis-3-(3-((4-fluoro-2-methyl-1,1-dioxido-2,3-dihydrobenzo[d]isothiazol-5-yl)amino)-1H-pyrazol-5-yl)cyclopentyl(4-hydroxycyclohexyl)carbamate], the IC50 on CDK2/Cyclin E1 was found to be 9.2 nM; at CDK1/Cyclin B1, 514 nM.

In the case of `CC(C)NC(=O)O[C@H]1CC[C@@H](c2cc(Nc3ccc4c(c3F)S(=O)(=O)NC4)n[nH]2)C1` (single isomer, unassigned) [Example 186a, cis-3-(3-((7-fluoro-1,1-dioxido-2,3-dihydrobenzo[d]isothiazol-6-yl)amino)-1H-pyrazol-5-yl)cyclopentyl isopropylcarbamate], the values for the IC50 at CDK2/Cyclin E1 and on CDK1/Cyclin B1 were 4.8 nM and 255 nM, respectively.

On to `CC(C)NC(=O)O[C@H]1CC[C@@H](c2cc(Nc3ccc4c(c3F)S(=O)(=O)NC4)n[nH]2)C1` (single isomer, unassigned) [Example 186b, cis-3-(3-((7-fluoro-1,1-dioxido-2,3-dihydrobenzo[d]isothiazol-6-yl)amino)-1H-pyrazol-5-yl)cyclopentyl isopropylcarbamate], for which the IC50 at CDK2/Cyclin E1 stood at 1.7 nM; at CDK1/Cyclin B1, 44 nM.

Turning to `CCCNC(=O)O[C@H]1CC[C@@H](c2cc(Nc3ccc4c(c3F)S(=O)(=O)NC4)n[nH]2)C1` (single isomer, unassigned) [Example 189a, cis-3-(3-((7-fluoro-1,1-dioxido-2,3-dihydrobenzo[d]isothiazol-6-yl)amino)-1H-pyrazol-5-yl)cyclopentyl propylcarbamate], the IC50 at CDK2/Cyclin E1 worked out at 10 nM; at CDK1/Cyclin B1, 350 nM.

For `CCCNC(=O)O[C@H]1CC[C@@H](c2cc(Nc3ccc4c(c3F)S(=O)(=O)NC4)n[nH]2)C1` (single isomer, unassigned) [Example 189b, cis-3-(3-((7-fluoro-1,1-dioxido-2,3-dihydrobenzo[d]isothiazol-6-yl)amino)-1H-pyrazol-5-yl)cyclopentyl propylcarbamate], the IC50 was determined as 2.7 nM against CDK2/Cyclin E1 and 41 nM against CDK1/Cyclin B1.

Turning to `CCCNC(=O)O[C@H]1CC[C@@H](c2cc(Nc3ccc4c(c3)CS(=O)(=O)N4)n[nH]2)C1` (single isomer, unassigned) [Example 195a, cis-3-(3-((2,2-dioxido-1,3-dihydrobenzo[c]isothiazol-5-yl)amino)-1H-pyrazol-5-yl)cyclopentyl propylcarbamate], the IC50 was determined as 12 nM on CDK2/Cyclin E1 and 73 nM at CDK1/Cyclin B1.

On to `CC(C)NC(=O)O[C@H]1CC[C@@H](c2cc(Nc3ccc4c(c3)CS(=O)(=O)N4CCO)n[nH]2)C1` (single isomer, unassigned) [Example 219a, cis-3-(3-((1-(2-hydroxyethyl)-2,2-dioxido-1,3-dihydrobenzo[c]isothiazol-5-yl)amino)-1H-pyrazol-5-yl)cyclopentyl isopropylcarbamate], for which the IC50 at CDK2/Cyclin E1 is 5.4 nM; against CDK1/Cyclin B1, 46 nM.

Turning to `CC(C)NC(=O)O[C@H]1CC[C@@H](c2cc(Nc3ccc4c(c3)CS(=O)(=O)N4CCO)n[nH]2)C1` (single isomer, unassigned) [Example 219b, cis-3-(3-((1-(2-hydroxyethyl)-2,2-dioxido-1,3-dihydrobenzo[c]isothiazol-5-yl)amino)-1H-pyrazol-5-yl)cyclopentyl isopropylcarbamate], the IC50 against CDK2/Cyclin E1 was determined as 3.6 nM; at CDK1/Cyclin B1, 28 nM.

In the case of `CC(C)NC(=O)O[C@@H]1CC[C@H](c2cc(Nc3ccc4c(c3)CS(=O)(=O)N4C)n[nH]2)C1` (single isomer, unassigned) [Example 220a], the IC50 at CDK2/Cyclin E1 amounted to 2.6 nM; at CDK1/Cyclin B1, 56 nM.

Take `CC(C)NC(=O)O[C@H]1CC[C@@H](c2cc(Nc3ccc4c(c3)CS(=O)(=O)N4C)n[nH]2)C1` (single isomer, unassigned) [Example 220b]: the values for the concentration for half-maximal inhibition (IC50) on CDK2/Cyclin E1 and at CDK1/Cyclin B1 were 2.6 nM and 35 nM, respectively.

On to `CN1c2ccc(Nc3cc([C@@H]4CC[C@H](OC(=O)NC5CCC5)C4)[nH]n3)cc2CS1(=O)=O` (single isomer, unassigned) [Example 227a, cis-3-(3-((1-methyl-2,2-dioxido-1,3-dihydrobenzo[c]isothiazol-5-yl)amino)-1H-pyrazol-5-yl)cyclopentyl cyclobutylcarbamate], for which the IC50 at CDK2/Cyclin E1 is 3.5 nM; against CDK1/Cyclin B1, 156 nM.

For `CN1c2ccc(Nc3cc([C@@H]4CC[C@H](OC(=O)NC5CCC5)C4)[nH]n3)cc2CS1(=O)=O` (single isomer, unassigned) [Example 227b, cis-3-(3-((1-methyl-2,2-dioxido-1,3-dihydrobenzo[c]isothiazol-5-yl)amino)-1H-pyrazol-5-yl)cyclopentyl cyclobutylcarbamate], the IC50 was determined as 1.3 nM against CDK2/Cyclin E1 and 45 nM against CDK1/Cyclin B1.

For the molecule `CC(C)NC(=O)O[C@H]1CC[C@@H](c2cc(Nc3ccc4c(c3)CCS(=O)(=O)N4)n[nH]2)C1` (single isomer, unassigned) [Example 246a, cis-3-(3-((2,2-dioxido-3,4-dihydro-1H-benzo[c][1,2]thiazin-6-yl)amino)-1H-pyrazol-5-yl)cyclopentyl isopropylcarbamate], the IC50 against CDK2/Cyclin E1 was determined as 3.4 nM; against CDK1/Cyclin B1 it was 201 nM.

For `CC(C)NC(=O)O[C@H]1CC[C@@H](c2cc(Nc3ccc4c(c3)CCS(=O)(=O)N4)n[nH]2)C1` (single isomer, unassigned) [Example 246b, cis-3-(3-((2,2-dioxido-3,4-dihydro-1H-benzo[c][1,2]thiazin-6-yl)amino)-1H-pyrazol-5-yl)cyclopentyl isopropylcarbamate], the concentration for half-maximal inhibition (IC50) on CDK2/Cyclin E1 came to 2.3 nM; on CDK1/Cyclin B1, 68 nM.

Turning to `CC1(NC(=O)O[C@H]2CC[C@@H](c3cc(Nc4ccc5c(c4)CCS(=O)(=O)N5)n[nH]3)C2)CC1` (single isomer, unassigned) [Example 249a, cis-3-(3-((2,2-dioxido-3,4-dihydro-1H-benzo[c][1,2]thiazin-6-yl)amino)-1H-pyrazol-5-yl)cyclopentyl(1-methylcyclopropyl)carbamate], the IC50 against CDK2/Cyclin E1 amounted to 1.1 nM; on CDK1/Cyclin B1, 31 nM.
